Data published in patent US12064516B2, “Pharmaceutical formulations and uses thereof” (Aldeyra Therapeutics, Inc., priority 2020, dated 2024).
Marks after values point to notes of the source that are not given here.

Experiment: Pharmacokinetic comparison of ADX-102 (reproxalap) and compound I-1 in rats
Format: in vivo, Sprague-Dawley rats
Conditions: SD Rat
[1] = oral gavage 10 mg/kg, CMC/Tween

- Vss (intravenous data using captisol formulation): 1.36 L/kg
- CL (intravenous data using captisol formulation, in mL/min/kg): 23**
- AUC 0-inf/Dose [1]: 64
- AUC 0-t/Dose [1]: 60
- AUC(0-inf) [1]: 640 ng·h/mL
- AUC(0-t) [1]: 595 ng·h/mL
- Cmax [1]: 390 ng/mL
- Tmax [1]: 0.5 h
- t1/2 [1]: 2.27 h
Compound: CC(C)(O)c1nc2ccc(Cl)cc2cc1N [ADX-102]
